Measurements taken from patent publication US9902726B2, “Pyridone-sulfone morphinan analogs as opioid receptor ligands” (Purdue Pharma L.P., priority 2013, dated 2018).

Columns and labels:
κ opioid receptor [1] = biological target: T1, κ opioid receptor (Homo sapiens (Human), UniProt P41145); test: κ-opioid receptor [35S]GTPγS functional assay, U-2 OS cells; format: biochemical; conditions: for Emax: U-2 OS cells, relative to U69,593
Protocol: (§1) κ-Opioid Receptor Functional Assay Procedures: Functional [^35S]GTPγS binding assays were conducted as follows. κ opioid receptor membrane solution was prepared by sequentially adding final concentrations of 0.026 μg/μl κ membrane protein (in-house), 10 μg/mL saponin, 3 μM GDP and 0.20 nM [^35S]GTPγS to binding buffer (100 mM NaCl, 10 mM MgCl2, 20 mM HEPES, pH 7.4) on ice. The prepared membrane solution (190 μl/well) was transferred to 96-shallow well polypropylene plates containing 10 μl of 20× concentrated stock solutions of agonist prepared in DMSO. Plates were incubated for 30 min at a temperature of about 25° C. with shaking.
(§2) κ-Opioid Receptor Functional Data: κ GTP EC50 is the concentration of a compound providing 50% of the maximal response for the compound at a κ receptor.
(§3) κ GTP Emax (%) is the maximal effect elicited by a compound relative to the effect elicited by U69,593.

κ opioid receptor [2] = biological target: T1, κ opioid receptor; test: κ-opioid receptor [35S]GTPγS functional assay, HEK-293 or CHO cells; format: biochemical; conditions: for Emax: HEK-293 or CHO cells, relative to U69,593
Protocol: as §1, §2, §3

μ-opioid receptor [3] = biological target: T2, μ-opioid receptor (Homo sapiens (Human), UniProt P35372); test: μ-opioid receptor [35S]GTPγS functional assay, U-2 OS cells; format: biochemical; conditions: for Emax: U-2 OS cells, relative to DAMGO
Protocol: (§4) μ-Opioid Receptor Functional Assay Procedures: [^35S]GTPγS functional assays were conducted using freshly thawed μ-receptor membranes prepared in-house from a cell line expressing recombinant μ opioid receptor in a HEK-293, CHO, or U-2 OS cell background or purchased from a commercial source (Perkin Elmer, Shelton, Conn.). Assay reactions were prepared by sequentially adding the following reagents to binding buffer (100 mM NaCl, 10 mM MgCl2, 20 mM HEPES, pH 7.4) on ice (final concentrations indicated): membrane protein (0.026 mg/mL), saponin ([…]), GDP ([…]) and [^35S]GTPγS (0.20 nM; Perkin Elmer, Shelton, Conn.). The prepared membrane solution (190 μl/well) was transferred to 96-shallow well polypropylene plates containing 10 μl of 20× concentrated stock solutions of the agonist [D-Ala^2, N-methyl-Phe^4 Gly-ol^5]-enkephalin (DAMGO) prepared in dimethyl sulfoxide (DMSO). Plates were incubated for 30 min at about 25° C. with shaking. […] Data were analyzed using the sigmoidal dose-response curve fitting functions in GraphPad PRISM v. 3.0, or an in-house function for non-linear, sigmoidal dose-response curve-fitting. [^35S]GTPγS functional assays can also be conducted using freshly thawed μ-receptor membranes prepared from a cell line expressing recombinant opioid receptor in a CHO-K1 cell background.
(§5) μ-Opioid Receptor Functional Data: μ GTP EC50 is the concentration of a compound providing 50% of the maximal response for the compound at a μ-opioid receptor.
(§6) μ GTP Emax (%) is the maximal effect elicited by a compound relative to the effect elicited by DAMGO, a standard μ agonist. Generally, the μ GTP Emax (%) value measures the efficacy of a compound to treat or prevent pain or other Conditions.

μ-opioid receptor [4] = biological target: T2, μ-opioid receptor; test: μ-opioid receptor [35S]GTPγS functional assay, HEK-293 or CHO cells; format: biochemical; conditions: for Emax: HEK-293 or CHO cells, relative to DAMGO
Protocol: as §4, §5, §6

μ-opioid receptor [5] = biological target: T2, μ-opioid receptor; test: μ-opioid receptor radioligand dose-displacement binding assay ([3H]-diprenorphine)
Protocol: Radioligand dose-displacement binding assays for μ-opioid receptors used 0.3 nM [^3H]-diprenorphine (Perkin Elmer, Shelton, Conn.), with 5 mg membrane protein/well in a final volume of 500 μl binding buffer (10 mM MgCl2, 1 mM EDTA, 5% DMSO, 50 mM HEPES, pH 7.4). Reactions were carried out in the absence or presence of increasing concentrations of unlabeled naloxone. All reactions were conducted in 96-deep well polypropylene plates for 2 hours at room temperature. Binding reactions were terminated by rapid filtration onto 96-well Unifilter GF/C filter plates (Perkin Elmer, Shelton, Conn.), presoaked in 0.5% polyethylenimine using a 96-well tissue harvester (Perkin Elmer, Shelton, Conn.) followed by performing three filtration washes with 500 μl of ice-cold binding buffer. Filter plates were subsequently dried at 50° C. for 2-3 hours. BetaScint scintillation cocktail (Perkin Elmer, Shelton, Conn.) was added (50 μl/well), and plates were counted using a Packard Top-Count for 1 min/well. The data were analyzed using the one-site competition curve fitting functions in GraphPad PRISM™ v.

[6] = biological target: recombinant human kappa opioid receptor (κ) (Homo sapiens (Human), UniProt P41145); test: κ-opioid receptor radioligand dose-displacement binding assay ([3H]-U69,593)
Protocol: κ-Opioid Receptor Binding Assay Procedures: Membranes from HEK-293 cells, CHO cells, or U-2 OS cells expressing the recombinant human kappa opioid receptor (κ) were prepared by lysing cells in ice cold hypotonic buffer (2.5 mM MgCl2, 50 mM HEPES, pH 7.4) (10 mL/10 cm dish) followed by homogenization with a tissue grinder/Teflon pestle. Membranes from a cell line naturally expressing kappa opioid receptor can also be used. Membranes were collected by centrifugation at 30,000×g for 15 min at 4° C. and pellets were resuspended in hypotonic buffer to a final concentration of 1-3 mg/mL. Protein concentrations were determined using the BioRad protein assay reagent with bovine serum albumen as standard. Aliquots of κ receptor membranes were stored at −80° C.
Radioligand dose displacement assays used 0.4 nM [^3H]-U69,593 (GE Healthcare, Piscataway, N.J.; 40 Ci/mmole) with 15 μg membrane protein (recombinant κ opioid receptor expressed in HEK 293 cells; in-house prep) in a final volume of 200 μl binding buffer (5% DMSO, 50 mM Trizma base, pH 7.4). Non-specific binding was determined in the presence of 10 μM unlabeled naloxone or U69,593. All reactions were performed in 96-well polypropylene plates for 1 hour at a temperature of about 25° C.

Compound	EC50 (κ opioid receptor [1])	Emax (κ opioid receptor [1])	EC50 (κ opioid receptor [2])	Emax (κ opioid receptor [2])	EC50 (μ-opioid receptor [3])	Emax (μ-opioid receptor [3])	EC50 (μ-opioid receptor [4])	Emax (μ-opioid receptor [4])	Ki (μ-opioid receptor [5])	Ki [6]
CS(=O)(=O)c1cc2c([nH]c1=O)C[C@]13CCN(CC4CC4)[C@H](Cc4ccc(O)cc41)[C@]3(O)C2 [Compound 5, (6R,6aS,12aR)-15-(cyclopropylmethyl)-2,6a-dihydroxy-9-(methylsulfonyl)-6a,7,11,12-tetrahydro-5H-6,12a-(epiminoethano)naphtho[2,1-g]quinolin-10(6H)-one]	0.85 ± 0.075 nM	55.7 ± 2.4%	1.27 ± 0.3 nM	10.3 ± 0.67%	> 20000 nM	2%	> 20000 nM	1%	0.76 ± 0.13 nM	0.36 ± 0.091 nM
O=c1[nH]c2c(cc1S(=O)(=O)c1ccccc1)C[C@@]1(O)[C@H]3Cc4ccc(O)cc4[C@@]1(CCN3CC1CC1)C2 [Compound 6, (6R,6aS,12aR)-15-(cyclopropylmethyl)-2,6a-dihydroxy-9-(phenylsulfonyl)-6a,7,11,12-tetrahydro-5H-6,12a-(epiminoethano)naphtho[2,1-g]quinolin-10(6H)-one]	0.26 ± 0.055 nM	33.2 ± 2.84%	–	–	> 20000 nM	2%	–	–	–	–
CN1CC[C@]23Cc4[nH]c(=O)c(S(C)(=O)=O)cc4C[C@@]2(O)[C@H]1Cc1ccc(O)cc13 [Compound 7, (6R,6aS,12aR)-2,6a-dihydroxy-15-methyl-9-(methylsulfonyl)-6a,7,11,12-tetrahydro-5H-6,12a-(epiminoethano)naphtho[2,1-g]quinolin-10(6H)-one]	203 ± 47.7 nM	71.3 ± 3.33%	–	–	148 ± 6.21 nM	68 ± 1.15%	–	–	–	–
CN1CC[C@]23Cc4[nH]c(=O)c(S(=O)(=O)c5ccccc5)cc4C[C@@]2(O)[C@H]1Cc1ccc(O)cc13 [Compound 8, (6R,6aS,12aR)-2,6a-dihydroxy-15-methyl-9-(phenylsulfonyl)-6a,7,11,12-tetrahydro-5H-6,12a-(epiminoethano)naphtho[2,1-g]quinolin-10(6H)-one]	35.8 ± 3.77 nM	82.3 ± 3.67%	–	–	77.5 ± 10.9 nM	61.7 ± 1.67%	–	–	–	19.5 ± 2.69 nM
CS(=O)(=O)c1cc2c([nH]c1=O)C[C@]13CCN(CC4CC4)[C@H](Cc4ccc(O)cc41)[C@@H]3C2 [Compound 9, (6R,6aR,12aS)-15-(cyclopropylmethyl)-2-hydroxy-9-(methylsulfonyl)-6a,7,11,12-tetrahydro-5H-6,12a-(epiminoethano)naphtho[2,1-g]quinolin-10(6H)-one]	–	–	–	–	–	–	> 20000 nM	2.5%	–	–
O=c1[nH]c2c(cc1S(=O)(=O)c1ccccc1)C[C@H]1[C@H]3Cc4ccc(O)cc4[C@@]1(CCN3CC1CC1)C2 [Compound 10, (6R,6aR,12aS)-15-(cyclopropylmethyl)-2-hydroxy-9-(phenylsulfonyl)-6a,7,11,12-tetrahydro-5H-6,12a-(epiminoethano)naphtho[2,1-g]quinolin-10(6H)-one]	–	–	–	–	–	–	> 20000 nM	2%	–	–
CN1CC[C@]23Cc4[nH]c(=O)c(S(C)(=O)=O)cc4C[C@H]2[C@H]1Cc1ccc(O)cc13 [Compound 11, (6R,6aR,12aS)-2-hydroxy-15-methyl-9-(methylsulfonyl)-6,6a,7,12-tetrahydro-5H-6,12a-(epiminoethano)naphtho[2,1-g]quinolin-10(11H)-one]	–	–	107 ± 28.7 nM	16.7 ± 1.21%	–	–	259 ± 53.5 nM	20.7 ± 1.76%	–	13.1 ± 2.27 nM
CN1CC[C@]23Cc4[nH]c(=O)c(S(=O)(=O)c5ccccc5)cc4C[C@H]2[C@H]1Cc1ccc(O)cc13 [Compound 12, (6R,6aR,12aS)-2-hydroxy-15-methyl-9-(phenylsulfonyl)-6,6a,7,12-tetrahydro-5H-6,12a-(epiminoethano)naphtho[2,1-g]quinolin-10(11H)-one]	–	–	17.2 ± 4.22 nM	17.2 ± 1.04%	–	–	83.1 ± 24.1 nM	19.8 ± 2.63%	–	2.78 ± 0.75 nM
